From paper PMC10165273, “Itch receptor MRGPRX4 interacts with the receptor activity–modifying proteins” (The Journal of Biological Chemistry, 2023)
Several values for one entry are separate records, joined by “and”; a condition that tells them apart may be missing. Equal values may be shown once. Read-outs that look alike come from different tables or passages of the source.

Biological target: T1, MRGPRX4 (Homo sapiens, UniProt Q96LA9)
T1 construct: expressed in transfected cells; host or cells: HEK293T
T1 sequence (Q96LA9 whole entry): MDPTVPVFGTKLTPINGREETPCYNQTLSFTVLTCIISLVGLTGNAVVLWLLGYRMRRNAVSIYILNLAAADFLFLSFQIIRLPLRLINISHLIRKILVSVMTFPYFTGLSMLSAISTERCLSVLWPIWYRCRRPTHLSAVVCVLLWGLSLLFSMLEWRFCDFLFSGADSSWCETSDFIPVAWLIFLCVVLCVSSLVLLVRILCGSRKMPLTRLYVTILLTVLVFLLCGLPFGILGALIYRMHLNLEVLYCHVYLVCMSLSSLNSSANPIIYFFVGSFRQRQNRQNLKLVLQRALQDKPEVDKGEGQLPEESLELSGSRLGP
Assay: IP1 accumulation HTRF assay, MRGPRX4
Assay type: cell-based
Design: key to IP1 Basal / IP1 accumulation with YM (Figure 1c) / response to agonist, MRGPRX4 / IP1 accumulation: % IP1: unstimulated mock-transfected = 0%, fully stimulated MRGPRX4 = 100%
Conditions: for activation at 100 µM / activation at 20 µM / activation at 4 µM / activation at 0.8 µM / activation at […] / activation at 0.032 µM: 2 h, read-out: IP1 accumulation (normalized); for activation at 100 µM: log [nateglinide] (M) -4; for activation at 20 µM: log [nateglinide] (M) -4.69897; for activation at 4 µM: log [nateglinide] (M) -5.39794; for activation at 0.8 µM: log [nateglinide] (M) -6.09691; for activation at […]: log [nateglinide] (M) -6.79588; for activation at 0.032 µM: log [nateglinide] (M) -7.49485; for normalized IP1 accumulation: HA-MRGX4-1D4

[1] = Dox 40 ng/mL, Supplementary Figure 5b
[2] = Dox 40 ng/mL, Supplementary Figure 5c
[3] = Dox 1100 ng/mL, Supplementary Figure 5a
[4] = Dox 1100 ng/mL, Supplementary Figure 5b
[5] = Dox 1100 ng/mL, Supplementary Figure 5c
[6] = Dox 3300 ng/mL, Supplementary Figure 5a
[7] = Dox 3300 ng/mL, Supplementary Figure 5b
[8] = Dox 3300 ng/mL, Supplementary Figure 5c
[9] = MRGPRX4 (2pg), Dox 3300ng/mL, Supplementary Figure 5b
[10] = MRGPRX4, Supplementary Figure 5d-g
[11] = Dox 13 ng/mL, Supplementary Figure 5a
[12] = Dox 13 ng/mL, Supplementary Figure 5c
[13] = Dox 40 ng/mL, Supplementary Figure 5a

CC(C)[C@H]1CC[C@H](C(=O)N[C@H](Cc2ccccc2)C(=O)O)CC1 [Nateglinide]
activation at 100 µM [1]: 17.6%
activation at 100 µM [2]: 58%
activation at 100 µM [3]: 97.1%
activation at 100 µM [4]: 25.8%
activation at 100 µM [5]: 81.1%
activation at 100 µM [6]: 100%
activation at 100 µM [7]: 32.5%
activation at 100 µM [8]: 100%
activation at 100 µM [9]: 100%
activation at 100 µM [10]: 100%
activation at 100 µM (MRGPRX4 no dox, Supplementary Figure 5d-g): 1.03%
activation at 100 µM (No Dox, Supplementary Figure 5a): 17%
activation at 100 µM (No Dox, Supplementary Figure 5c): 17%
activation at 20 µM [11]: 62.9%
activation at 20 µM (Dox 13 ng/mL, Supplementary Figure 5b): 6.04%
activation at 20 µM [12]: 25.4%
activation at 20 µM [13]: 71.8%
activation at 20 µM [1]: 8.95%
activation at 20 µM [2]: 33.6%
activation at 20 µM [3]: 83.3%
activation at 20 µM [4]: 17.4%
activation at 20 µM [5]: 57.5%
activation at 20 µM [6]: 86.8%
activation at 20 µM [7]: 23.5%
activation at 20 µM [8]: 74.7%
activation at 20 µM [9]: 86.8%
activation at 20 µM [10]: 96.1%
activation at 4 µM [11]: 29.5%
activation at 4 µM [12]: 4.86%
activation at 4 µM [13]: 32.9%
activation at 4 µM [2]: 7.47%
activation at 4 µM [3]: 46.5%
activation at 4 µM [4]: 4.19%
activation at 4 µM [5]: 20.2%
activation at 4 µM [6]: 44%
activation at 4 µM [7]: 8.69%
activation at 4 µM [8]: 32.8%
activation at 4 µM [9]: 44%
activation at 4 µM [10]: 56.6%
activation at 0.8 µM [11]: 10.1%
activation at 0.8 µM [13]: 12.5%
activation at 0.8 µM [3]: 19.7%
activation at 0.8 µM [5]: 3.18%
activation at 0.8 µM [6]: 19.9%
activation at 0.8 µM [8]: 10.1%
activation at 0.8 µM [9]: 19.9%
activation at 0.8 µM [10]: 23.8%
activation at […] [11]: 5.08%
activation at […] [13]: 6.44%
activation at […] [3]: 11.5%
activation at […] [6]: 11.6%
activation at […] [8]: 7.74%
activation at […] [9]: 11.6%
activation at […] [10]: 11.3%
activation at 0.032 µM [11]: 4.57%
activation at 0.032 µM [13]: 5.36%
activation at 0.032 µM [3]: 10.3%
activation at 0.032 µM [6]: 10.9%
activation at 0.032 µM [8]: 3.46%
activation at 0.032 µM [9]: 10.9%
activation at 0.032 µM [10]: 13.6%
efficacy (Figure 4a bottom, MRGPRX4 alone (reference = 100), individual replicates): 100
Emax (Figure 4a bottom, MRGPRX4 alone (reference = 100), individual replicates, read-out: efficacy): 100%
EC50 (Figure 4a top, MRGPRX4 alone (no RAMP), individual replicates, read-out: potency (converted)): 7.29 µM and 10.3 µM and 7.1 µM
response to agonist, MRGPRX4 (Figure 4c-f, agonist 100µM, MRGPRX4 alone (reference = 100)): 100
normalized IP1 accumulation (log [agonist] (M) -4): 81.552 and 83.6202
normalized IP1 accumulation (log [agonist] (M) -4.69897): 71.4189 and 62.4618
normalized IP1 accumulation (log [agonist] (M) -5.39794): 34.1012 and 34.3253
normalized IP1 accumulation (log [agonist] (M) -6.09691): 18.0339 and 19.9037
normalized IP1 accumulation (log [agonist] (M) -6.79588): 15.3353 and 14.0745
normalized IP1 accumulation (log [agonist] (M) -7.49485): 14.2615 and 16.0131
Emax (HEK-293T, MRGPRX4 (Fig. 1A), HEK293T, normalized to 100 μM nateglinide, read-out: IP1 Emax): 103%
Emax (HEK-293T, MRGPRX4 (Fig. 1A), HEK293T, normalized to 100 μM nateglinide, read-out: IP1 span): 87.6%
Emax (MRGPRX4 0.125 pg DNA/cell, individual experiments, read-out: efficacy (Figure 1b bottom)): 77.3%
EC50 (MRGPRX4 0.125 pg DNA/cell, individual experiments, read-out: potency (Figure 1b top) (converted)): 15.9 µM and 12.3 µM and 12.6 µM
Emax (MRGPRX4 0.25 pg DNA/cell, individual experiments, read-out: efficacy (Figure 1b bottom)): 81.4%
